Earlier results as cited in patent US20250108011A1, “ORAL DOSAGE FORMS OF A […] ACTIVE ACID-LABILE SALT AND METHODS AND USES RELATED THERETO” (Rijksuniversiteit Groningen, priority 2022, published 2025).

Legend:
[1] = test system: hypertensive rats
[2] = test system: calciphylaxis; settings: oral maintenance therapy, ref [21]
[3] = test system: hypercalciuric rats; settings: oral, ref [22]
[4] = test system: pregnant Dahl salt-sensitive rats; settings: ref [23]

O=S([O-])([O-])=S.[Na+].[Na+] [STS, Sodium thiosulfate]
renal effect of oral STS as a single treatment regimen ([1]; oral, ref [19]): renoprotective effects
effect as a single treatment regimen in hypertensive rats ([1]; refs [17,18]): reduced blood pressure, proteinuria, kidney and heart damage
cardiac effect of oral STS ([1]; same model, ref [20]): Cardioprotective effects
tolerability of oral administration [2]: well tolerated with no reported side effects
effect on nephrolithiasis [3]: reduce calcium phosphate nephrolithiasis
effect on blood pressure [4]: antihypertensive effects
